US20260199423A1, “COMPOSITIONS COMPRISING AN ONCOLYTIC PEPTIDE AND CHITOSAN” (LYTIX BIOPHARMA AS, priority 2022, published 2026)

Test system: B16F1 melanoma cells
Test: Melanoma mouse model, injection into the tumor
Type: in vivo, C57BL/6NRj mice
Conditions: 50 μl into the tumor on two consecutive days; groups of 10 mice; FIG. 2
Experimental: The following compositions were prepared as described in Example 1 in aqueous acetic acid/acetate buffer, pH 5.2. The following chitosan was used in this study: chitosan medium molecular weight, 330 kDa, DAA 86% (manufacturer Chitinor, Norway). • 1: LTX-401, 5 mg/ml (free base) • 2: Chitosan, 1.2% (w/w) • 3: LTX-401, 5 mg/ml (free base) and chitosan, 1.2% (w/w) • 4: Control: aqueous acetic acid/acetate buffer
Immunocompetent C57BL/6NRj mice (JanVier Labs, France) were inoculated with B16F1 melanoma cells on day 0 by subcutaneous injection of 5×10^4 tumor cells per mouse/50 μl RPMI-1640 in the skin on the abdomen of the animal. The mice were divided into 4 groups of 10 mice each, and treatment was initiated when the tumors were palpable and reached the desired size of approximately 5 mm in diameter (40-80 mm^3). The respective compositions 1~4 were administered by injection into the tumor (50 μl) on two consecutive days (day 11 and 12 or day 12 and 13 or day 13 and 14, depending on tumor growth). The mice were monitored during the study by measuring the tumors and weighing the animals regularly. The tumor volume was measured using an electronic caliper and expressed as volume V=(L×W×W)/2, where W is the tumor width and L is the tumor length. […]

## NCCNC(=O)C(CN)(CCCc1ccccc1)CCCc1ccccc1 [LTX-401]
  Survival: 60%
